Results from patent publication US20090209460A1, “COMPOSITIONS AND METHODS FOR TREATING OBESITY AND RELATED METABOLIC DISORDERS” (Amylin Pharmaceuticals, Inc., priority 2005, published 2009).
Non-standard residues stand in square brackets, D forms with d. Residues, ends and D or L forms follow the SMILES beside them. No end group written: not given here. beta turn mimic B = not defined here

Columns and labels:
NIH/Swiss mice = test: acute food intake assay, lean overnight-fasted NIH/Swiss mice, intraperitoneal injection; assay type: in vivo, mouse; conditions: for reduction of food intake: administered systemically (i.p. to mice), dose and time not stated; for FI (60′, 200) / ED50 at t = 60: food intake; for FI (60′, 200): % change relative to control, 60 min; for Food Intake Inhibition: mouse assay, dose of 200 mg/kg, measured at 60 minutes
Experimental: The effect of NMX Peptides, FNX Peptides or NMX Receptor agonists on food intake when systemically administered was investigated using an acute food intake assay. This assay measured food consumption in lean subjects. Lean, group-housed, overnight-fasted NIH/Swiss mice. All in vivo tests were performed with peripheral injections of peptide. […] The dose-response data are presented herein. The protocol is described below. Female NIH/Swiss mice (8-24 weeks old) were group housed with a 12:12 hour light:dark cycle, with lights on at 0300. Water and a standard pelleted mouse chow diet are available ad libitum, except as noted. Animals are fasted starting at approximately 1530 hrs, 1 day prior to experiment. At time=0 min, all animals are given an intraperitoneal injection of vehicle or polypeptide in a volume of 200 uL/mouse and immediately given a pre-weighed amount (10-15 g) of the standard chow. Food is removed and weighed at 30, 60, and 120 minutes to determine the amount of food consumed. The effects of treatment on food intake are expressed as % change relative to control.

[1] = body weight and food intake in mice with diet induced obesity (mouse DIO), osmotic pump; assay type: in vivo; conditions: for d 14 BWt loss: day 14
Experimental: The effect of FN38 and related compounds on body weight and food intake in obese subjects was investigated. Mice having diet induced obesity (DIO) were used. All in vivo tests were performed with peripheral injections of peptide. […] 4-week-old male C57BL/6 mice were group housed with water and a standard pelleted mouse chow diet available ad libitum, except as noted, and were maintained on a on a high fat diet (58% kcal from fat) for 4 weeks prior to the experiment. At the end of fattening period, osmotic pumps were implanted interscapularly under anesthesia. Mice received pumps continuously delivering vehicle (50% DMSO in water or saline) or polypeptide at the dose indicated. Food intake and body weight measurements were obtained weekly.

[2] = brush border membrane (BBM) stability assay; assay type: in vitro ADME, human; conditions: for remaining at 5 h: brush border membrane extract (e.g. kidney), percent compound remaining after a 5 hour incubation, human brush border membrane assay, read-out: hBBM
Experimental: Some exemplary NMX Peptides and FNX Peptides were tested for stability in a brush border membrane (BBM) assay as described herein. To determine the enzymatic stability of peptide hormones peptides are incubated with a preparation of human brush border membranes extract (e.g., kidney), and the stability of the peptide is determined by measuring concentration of the intact peptide at specific intervals. The brush border membrane extract contains dipeptidyl peptidase IV (DPP-IV), neutral endopeptidases, peptidyl-dipeptidase A, carboxypeptidases and aminopeptidases. These are the primary enzymes that degrade peptides in vivo and are found in the kidneys, liver, lungs and pancreas. Resistance against these human proteases would increase peptide half-life. In the BBM assay test peptide was subjected to digestion over a period of five (5) hours with human brush border membrane extracts, e.g. kidney, at 37° C. At desired timepoints digestion was stopped by addition of quench solution, typically 50% ACN, 1% FA. After centrifugation to remove membrane debris, supernatant was subjected to mass spectrometry using a selected ion scan for the intact molecule of interest. Values are expressed as a percent of stable. A value of at least 80 or greater is regarded as an extremely stable molecule. A value of at least 70 or greater is a molecule with significant stability.

[3] = system: mice with diet induced obesity (mouse DIO); test: cumulative food intake in mouse DIO after IP injection (FIGS. 6 and 7); assay type: in vivo; conditions: injected IP at t=0; measured at 30, 60, 120 and 180 min
Experimental: The activities of the following compounds are shown: A, [MimicB36] FN38; B, [His37] FN38; C,
[His35] FN38; D, [Phe33] FN38; E, [Val33] FN38; F, Des-(Ser6,Lys7,Thr8,Gln9) FN38; G, Des-Val16,Val17-FN38; H, [Phe31] FN38; I, Des-(Val16,Val17,Phe24,Ala25,Ser26,Gln27) FN38; J, Des-(Phe1,Leu2,Phe3,His4)FN38; and K, Des-(Phe24,Ala25,Ser26,Gln27)-FN38. […] Points represent mean±sd of n=4 cages (3 mice/cage). Peptide was injected IP at t=0. Food was introduced immediately after injection and amount consumed measured at t=30, 60, 120, and 180 min. In the figure, * p<0.05 vs. vehicle control; ANOVA, Dunnett's test.

| Compound | reduction of food intake (NIH/Swiss mice) | FI (60′, 200) (NIH/Swiss mice) [%] | ED50 at t = 60 (NIH/Swiss mice) | d 14 BWt loss ([1]; mouse DIO) [%] | remaining at 5 h [2] [%] | Food Intake Inhibition (NIH/Swiss mice) [%] | cumulative food intake in mouse DIO (FIGS. 6A, 6B, 7A, 7B) [3] | also measured |
| --- | --- | --- | --- | --- | --- | --- | --- | --- |
| CC[C@H](C)[C@H](NC(=O)[C@@H](NC(=O)CNC(=O)CNC(=O)[C@@H]1CCCN1C(=O)[C@@H](NC(=O)[C@H](CCC(N)=O)NC(=O)[C@@H](NC(=O)[C@H](CCC(=O)O)NC(=O)[C@H](CCC(=O)O)NC(=O)[C@H](CC(=O)O)NC(=O)[C@@H](N)CO)C(C)C)C(C)C)C(C)C)C(=O)N[C@@H](CO)C(=O)N[C@@H](CC(N)=O)C(=O)NCC(=O)N[C@@H](Cc1ccc(O)cc1)C(=O)N[C@@H](Cc1ccccc1)C(=O)N[C@@H](CC(C)C)C(=O)N[C@@H](Cc1ccccc1)C(=O)N[C@@H](CCCNC(=N)N)C(=O)N1CCC[C@H]1C(=O)N[C@@H](CCCNC(=N)N)C(=O)N[C@@H](CC(N)=O)C(N)=O [Compound 163452, reference compound] (H-SDEEVQVPGGVISNGYFLFRPRN-NH2; N-terminus assumed) | up to 95% | −88 | 0.022 mg/kg | 1.5 |  |  |  | ED50 for effect on food intake (NIH/Swiss mice; over 30 min, i.p., mice): 9.0 nmol/kg; body weight gain and food intake in the DIO assay ([1]; 75 nmol/kg/day): decreased body weight gain and food intake; long acting effect in mouse DIO ([1]; mouse DIO): did not have a long acting effect |
| CC[C@H](C)[C@H](NC(=O)[C@@H](NC(=O)CNC(=O)CNC(=O)[C@@H]1CCCN1C(=O)[C@@H](NC(=O)[C@H](CCC(N)=O)NC(=O)[C@@H](NC(=O)[C@H](CCC(=O)O)NC(=O)[C@H](CCC(=O)O)NC(=O)[C@H](CC(=O)O)NC(=O)[C@H](CO)NC(=O)[C@H](CC(N)=O)NC(=O)[C@H](CO)NC(=O)[C@H](CCCCN)NC(=O)CNC(=O)[C@H](CC(C)C)NC(=O)[C@H](CCCCN)NC(=O)[C@H](CCC(N)=O)NC(=O)[C@@H](NC(=O)[C@H](CCCCN)NC(=O)[C@H](CO)NC(=O)[C@H](Cc1ccc(O)cc1)NC(=O)[C@H](Cc1c[nH]cn1)NC(=O)[C@H](Cc1ccccc1)NC(=O)[C@H](CC(C)C)NC(=O)[C@@H](N)Cc1ccccc1)[C@@H](C)O)C(C)C)C(C)C)C(C)C)C(=O)N[C@@H](CO)C(=O)N[C@@H](CC(N)=O)C(=O)NCC(=O)N[C@@H](Cc1ccc(O)cc1)C(=O)N[C@@H](Cc1ccccc1)C(=O)N[C@@H](CC(C)C)C(=O)N[C@@H](Cc1ccccc1)C(=O)N[C@@H](CCCNC(=N)N)C(=O)N1CCC[C@H]1C(=O)N[C@@H](CCCNC(=N)N)C(=O)N[C@@H](CC(N)=O)C(N)=O [Compound 165063] (H-FLFHYSKTQKLGKSNSDEEVQVPGGVISNGYFLFRPRN-NH2; N-terminus assumed) | at least 89% | −88 | 6 nmol/kg | 8.6 | 73 | −88 |  | BBM ([2]; percent of stable, human brush border membrane extracts, five hours, 37° C.): 73%; d 7 BWt loss ([1]; mouse DIO, day 7): 5.1% |
| CC(C)C[C@H](NC(=O)[C@H](CCCCN)NC(=O)[C@H](CCC(N)=O)NC(=O)[C@@H](NC(=O)[C@H](CCCCN)NC(=O)[C@H](CO)NC(=O)[C@H](Cc1ccc(O)cc1)NC(=O)[C@H](Cc1c[nH]cn1)NC(=O)[C@H](Cc1ccccc1)NC(=O)[C@H](CC(C)C)NC(=O)[C@@H](N)Cc1ccccc1)[C@@H](C)O)C(=O)NCC(=O)N[C@@H](CCCCN)C(=O)N[C@@H](CO)C(=O)N[C@@H](CC(N)=O)C(=O)N[C@H](C(=O)N[C@H](C(=O)N[C@@H](CCC(=O)O)C(=O)N[C@@H](CCC(=O)O)C(=O)N[C@@H](CC(C)C)C(=O)N[C@@H](CCC(N)=O)C(=O)N[C@@H](CO)C(=O)N1CCC[C@H]1C(=O)N[C@@H](Cc1ccccc1)C(=O)N[C@@H](C)C(=O)N[C@@H](CO)C(=O)N[C@@H](CCC(N)=O)C(=O)N[C@@H](CO)C(=O)N[C@@H](CCCNC(=N)N)C(=O)NCC(=O)N[C@@H](Cc1ccc(O)cc1)C(=O)N[C@@H](Cc1ccccc1)C(=O)N[C@@H](CC(C)C)C(=O)N[C@@H](Cc1ccccc1)C(=O)N[C@@H](CCCNC(=N)N)C(=O)N1CCC[C@H]1C(=O)N[C@@H](Cc1c[nH]cn1)C(=O)N[C@@H](CC(N)=O)C(N)=O)C(C)C)C(C)C [Compound B] (H-FLFHYSKTQKLGKSNVVEELQSPFASQSRGYFLFRPHN-NH2; N-terminus assumed) |  |  |  |  |  |  | either not active or weakly active |  |
| CC(C)C[C@H](NC(=O)[C@H](CCCCN)NC(=O)[C@H](CCC(N)=O)NC(=O)[C@@H](NC(=O)[C@H](CCCCN)NC(=O)[C@H](CO)NC(=O)[C@H](Cc1ccc(O)cc1)NC(=O)[C@H](Cc1c[nH]cn1)NC(=O)[C@H](Cc1ccccc1)NC(=O)[C@H](CC(C)C)NC(=O)[C@@H](N)Cc1ccccc1)[C@@H](C)O)C(=O)NCC(=O)N[C@@H](CCCCN)C(=O)N[C@@H](CO)C(=O)N[C@@H](CC(N)=O)C(=O)N[C@H](C(=O)N[C@H](C(=O)N[C@@H](CCC(=O)O)C(=O)N[C@@H](CCC(=O)O)C(=O)N[C@@H](CC(C)C)C(=O)N[C@@H](CCC(N)=O)C(=O)N[C@@H](CO)C(=O)N1CCC[C@H]1C(=O)N[C@@H](Cc1ccccc1)C(=O)N[C@@H](C)C(=O)N[C@@H](CO)C(=O)N[C@@H](CCC(N)=O)C(=O)N[C@@H](CO)C(=O)N[C@@H](CCCNC(=N)N)C(=O)NCC(=O)N[C@@H](Cc1ccc(O)cc1)C(=O)N[C@@H](Cc1ccccc1)C(=O)N[C@@H](CC(C)C)C(=O)N[C@@H](Cc1ccccc1)C(=O)N[C@@H](Cc1c[nH]cn1)C(=O)N1CCC[C@H]1C(=O)N[C@@H](CCCNC(=N)N)C(=O)N[C@@H](CC(N)=O)C(N)=O)C(C)C)C(C)C [Compound C] (H-FLFHYSKTQKLGKSNVVEELQSPFASQSRGYFLFHPRN-NH2; N-terminus assumed) |  |  |  |  |  |  | either not active or weakly active |  |
| CC(C)C[C@H](NC(=O)[C@H](Cc1ccccc1)NC(=O)[C@H](Cc1ccc(O)cc1)NC(=O)CNC(=O)[C@H](CCCNC(=N)N)NC(=O)[C@H](CO)NC(=O)[C@H](CCC(N)=O)NC(=O)[C@H](CO)NC(=O)[C@H](C)NC(=O)[C@H](Cc1ccccc1)NC(=O)[C@H](CO)NC(=O)[C@H](Cc1ccc(O)cc1)NC(=O)[C@H](Cc1c[nH]cn1)NC(=O)[C@H](Cc1ccccc1)NC(=O)[C@H](CC(C)C)NC(=O)[C@@H](N)Cc1ccccc1)C(=O)N[C@@H](Cc1ccccc1)C(=O)N[C@@H](CCCNC(=N)N)C(=O)N1CCC[C@H]1C(=O)N[C@@H](CCCNC(=N)N)C(=O)N[C@@H](CC(N)=O)C(N)=O [Des-(Lys7-Pro23)FN38] (H-FLFHYSFASQSRGYFLFRPRN-NH2; N-terminus assumed) |  |  |  |  | 95 | −26 | reduction of cumulative food intake |  |
| FLFHYSKTQKLGKSNVVEELQSPFASQSRGYFLFR(beta turn mimic B)RN-NH2 (FLFHYSKTQKLGKSNVVEELQSPFASQSRGYFLFR[beta turn mimic B]RN-NH2; reading uncertain) [Compound A] |  |  |  |  |  |  | either not active or weakly active |  |
